Data as given in PubChem BioAssay (NCI).
Where “and” joins values, the source holds several entries; their conditions need not be identical. Equal values may be shown once.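 A five-concentration, 48-hour dose response in 96-well plates underlies each endpoint, interpolated linearly between surrounding concentrations. Abbreviation: GI50, concentration required for 50% inhibition of growth. At the TGI there is no net growth.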

Legend:
Test in all cases: growth of human tumour cells (NCI), 48 h
[1] = system: UACC-257 melanoma
[2] = system: 786-0 renal
[3] = system: OVCAR-8 ovarian
[4] = system: EKVX NSCLC
[5] = system: HCT-15 colon
[6] = system: IGROV1 ovarian
[7] = system: OVCAR-5 ovarian
[8] = system: CAKI-1 renal
[9] = system: HL-60(TB) leukemia
[10] = system: NCI/ADR-RES ovarian

SMILES	GI50 [1]	TGI [1]	GI50 [2]	TGI [2]	GI50 [3]	TGI [3]	GI50 [4]	TGI [4] [µM]	GI50 [5]	TGI [5]	GI50 [6]	TGI [6]	GI50 [7]	TGI [7]	GI50 [8] [µM]	TGI [8]	GI50 [9]	TGI [9]	GI50 [10]	TGI [10]
COc1ccc(NC(=O)c2ccc(NC3=C(Cl)C(=O)N(Cc4ccccc4)C3=O)cc2)c(OC)c1	47 µM	> 100 µM	23.3 µM	> 100 µM	29.2 µM	> 100 µM	64.9 µM	> 100	20 µM	46.3 µM	10.8 µM	73.8 µM	49.3 µM	> 100 µM	0.637	1.96 µM	13.2 µM	31.1 µM	17.8 µM	47.3 µM
CN(C)CCNC(=O)c1ccc2oc3cc4ccccc4c(=O)n3c2c1	23.9 µM	58 µM	71.6 µM	> 100 µM	23.1 µM	76.2 µM	27.5 µM	> 100	28.2 µM	> 100 µM	23.1 µM	> 100 µM			17.1	55.2 µM	30.4 µM	> 100 µM	37.4 µM	> 100 µM
NC(N)=Nc1ccc(/C=C2\C=Cc3ccccc32)cc1	4.99 µM	18.3 µM	3.22 µM	14.8 µM	2.22 µM	5.67 µM	4.74 µM	22.2	2.13 µM	4.55 µM	2.02 µM	5.12 µM	2.61 µM	6.77 µM	2.49	8.67 µM	2.67 µM	5.87 µM	4.54 µM	18.8 µM
[Cu+2].[NH-]C(CC(=O)O)C(=O)O.[NH-]C(CC(=O)O)C(=O)O (stereo unspecified)	> 100 µM	> 100 µM	> 100 µM	> 100 µM	> 100 µM	> 100 µM	> 100 µM	> 100	> 100 µM	> 100 µM	> 100 µM	> 100 µM	> 100 µM	> 100 µM	> 100	> 100 µM	> 100 µM	> 100 µM	> 100 µM	> 100 µM
N#CC1=C(N)Oc2c(sc3c(Br)cccc23)C1c1ccc(Cl)cc1 (stereo unspecified)	1.73 µM	22.7 µM	0.663 µM	2.71 µM	1.71 µM	8.29 µM	2.23 µM	17.4	0.403 µM	2.25 µM	0.787 µM	4.35 µM	1.91 µM	5.98 µM	0.477	16.3 µM	0.357 µM	1.88 µM	0.332 µM	1.35 µM
O=[N+]([O-])c1oc2ccc3ccccc3c2c1CCO		4.2 µM		> 50 µM		23.1 µM		2.09		34.2 µM		3.56 µM		34.9 µM		8.58 µM		13 µM		30.1 µM
Oc1ccccc1/C=N\NC(=S)N/N=C/c1ccccc1O	2.6 µM	16.6 µM	3.49 µM	20 µM	2.34 µM	51.1 µM	2.57 µM	24.3	0.589 µM	> 100 µM	1.53 µM	16.2 µM	9.38 µM	> 100 µM	0.548	3.94 µM	2.04 µM	14.6 µM	0.543 µM	> 100 µM
C/C=C(\C)C(=O)O[C@H]1C=CC(=O)O[C@H]1COC(=O)[C@H](C)O	14.7 µM	30.8 µM	6.59 µM	20.9 µM	12.2 µM	28.3 µM	14.5 µM	28.9	3.74 µM	16.2 µM	10.2 µM	33.7 µM	18.8 µM	39 µM	5.46	14.9 µM	2.34 µM	6.9 µM	12.1 µM	32.6 µM
COC(=O)[C@@H](C)C[C@H](Cc1ccccc1)NC(=O)c1csc([C@@H](C[C@H](C(C)C)N(C)C(=O)[C@@H](NC(=O)[C@H]2CCCN2C)C2CC2)OC(C)=O)n1	0.22 µM		0.00479 µM and 0.0025 µM	> 25 µM	0.00262 µM and 0.0025 µM	> 25 µM	0.00833 µM		0.00495 µM and 0.0025 µM	> 25 µM	0.000823 µM and 0.0025 µM	> 25 µM		> 25 µM			0.000219 µM and < 0.0025 µM	0.000738 µM and < 0.0025 µM	0.276 µM and 0.262 µM	> 25 µM
O=S(=O)(NCCCNc1cc(-c2cn(-c3ccccc3)nc2-c2cccc(O)c2)ccn1)c1ccc(Br)cc1			1.5 µM	4.29 µM	2.45 µM	9.29 µM	2.29 µM	66.4	1.32 µM	3.51 µM	3.58 µM	29 µM	2.12 µM	5.55 µM	2.25	12.6 µM	1.79 µM	4.92 µM	2.33 µM	8.19 µM
CN1CCN(CCCN2c3ccccc3Sc3ccc(Cl)cc32)CC1			6.15 µM and 38 µM	12.8 µM and 61.4 µM	7.39 µM and 42.8 µM	14.8 µM	5.46 µM	12.4	5.12 µM and 48 µM	11.5 µM and 77.8 µM		11.7 µM and 67.3 µM	7.09 µM and 43.1 µM	14 µM and 62.9 µM		9.02 µM and 74.2 µM	8.85 µM	17.9 µM	6 µM and 44.5 µM	12.8 µM and 78.6 µM
CCNCCNc1cc(-c2ccc(C(F)(F)F)cc2)c(C#N)c2nc3cc(Cl)c(Cl)cc3n12	1.9 µM	3.39 µM	1.53 µM	3.02 µM	1.74 µM	3.41 µM	1.59 µM	3.13	0.289 µM	0.935 µM			2.03 µM	3.68 µM	1.45	2.82 µM	0.308 µM	1.01 µM	1.49 µM	3.33 µM
O=C1CC(CC(OCc2ccccc2)C(OCc2ccccc2)C(COCc2ccccc2)OCc2ccccc2)CC(=O)N1 (stereo unspecified)	> 100 µM and 16.3 µM	> 100 µM and 36.4 µM	> 100 µM and 11 µM	> 100 µM and 49.3 µM	> 100 µM and 13.7 µM	> 100 µM and 48.8 µM	> 100 µM and 12.5 µM	> 100		> 100 µM and 47.2 µM	> 100 µM and 17.2 µM	> 100 µM and 33.7 µM	> 100 µM and 24.9 µM	> 100 µM and 80.8 µM				> 100 µM and 25.4 µM	> 100 µM and 12.8 µM	> 100 µM
